Starred links: 1 amine or outer side, 2 acyl side, 3 side chain; linkers in the order of their positions; H or OH if unused. Positions of bridges follow the written chain, without caps; N, C: chain ends. Non-standard residues stand in square brackets, D forms with d. Residues, ends and D or L forms follow the SMILES beside them. Suc = O=C(CCC(=O)[*:2])[*:1]; Nle = CCCC[C@H](N)C(=O)O
Test system: thrombin generation in human platelet poor plasma with skeletal muscle myosin
Experiment: Assay 2A: thrombin generation, recalcification of human platelet poor plasma + myosin
Format: biochemical
Conditions: human platelet poor plasma 30%, myosin 50 nM, CaCl2 10 mmol/L; read-out: 2A (recalcification +myosin)
Procedure: Activities of the various peptides and derivative compounds were also examined via assays using recalcification of human plasma. [One of] these assay format (2A) involves monitoring thrombin generation in platelet poor plasma (PPP). Specifically, pooled normal human platelet poor plasma (PPP) (obtained from George King Bio Medical Inc., Overland Park, Kans.) (30%) was incubated with skeletal muscle myosin at 50 nM in the presence of peptide in DMSO or DMSO alone for 5 min at 37° C. Then, fluorogenic thrombin substrate solution (Z-Gly-Gly-Arg-AMC) (I-1140) with CaCl2 (10 mmol/L final) alone was added to the reaction mixture (total 110 μl) to initiate coagulation. Thrombin generation was followed continuously for 25 min using SPECTRAmax GEMINI XS fluorometer (Molecular Devices, Sunnyvale, Calif.) with excitation and emission wavelengths set at 360 and 460 nm, respectively. The first derivative of fluorescence versus time was used to produce thrombin generation curves with the correction for substrate consumption and inner filter effect. For this assay 96 well plate (total 110 μL) or 384 well plates (total 30 μL) were used.
Activities obtained from Assay 2A (recalcification of human plasma in the presence of myosin) were used to rank the various peptides listed in Table 3. As noted above, this assay monitors recalcification of plasma to stimulate thrombin generation. In this assay, potency of the compounds was determined as the peptide concentration for 50% inhibition of thrombin generation, defined as “IC50”.

Row | SMILES | IC50 [µM]
1 | CC[C@H](C)[C@H](NC(=O)[C@H](C)NC(=O)[C@H](CCC(=O)O)NC(=O)[C@H](CCCNC(=N)N)NC(=O)[C@H](CCCNC(=N)N)NC(=O)[C@H](CCC(=O)O)NC(=O)[C@@H](NC(=O)[C@H](CCSC)NC(=O)[C@H](CCCNC(=N)N)NC(=O)[C@H](CCC(N)=O)NC(=O)[C@H](Cc1ccc(O)cc1)NC(=O)[C@H](CCC(=O)O)NC(=O)[C@@H](NC(=O)[C@H](CCCNC(=N)N)NC(=O)[C@H](C)NC(=O)[C@H](CC(C)C)NC(=O)[C@H](Cc1ccccc1)NC(=O)CNC(=O)[C@H](CCCNC(=N)N)NC(=O)[C@H](CS)NC(=O)[C@H](CCCNC(=N)N)NC(=O)[C@H](C)N)C(C)C)C(C)C)C(=O)N[C@@H](Cc1ccccc1)C(=O)N[C@@H](CS)C(=O)N[C@H](C(=O)N[C@@H](CCC(N)=O)C(=O)N[C@H]1CCCCNC(=O)CCC(=O)NCCCC[C@@H](C(=O)N[C@H](C(=O)N[C@@H](CCCCN)C(=O)N[C@@H](Cc2c[nH]cn2)C(=O)N[C@@H](Cc2c[nH]c3ccccc23)C(=O)N2CCC[C@H]2C(=O)N[C@@H](Cc2c[nH]c3ccccc23)C(N)=O)C(C)C)NC(=O)[C@H](CCSC)NC(=O)[C@H](Cc2ccccc2)NC(=O)[C@H](CO)NC(=O)[C@H](CCCNC(=N)N)NC(=O)[C@H]([C@@H](C)CC)NC(=O)[C@H](CC(N)=O)NC1=O)[C@@H](C)CC [HC077] (H-ARCRGFLARVEYQRMVERREAIFCIQKNIRSFMKVKHWPW-NH2; linker 27-34 via Suc; N-terminus and C-terminus assumed) | 15
2 | CCCC[C@H](NC(=O)[C@H](Cc1ccccc1)NC(=O)[C@H](CO)NC(=O)[C@H](CCCNC(=N)N)NC(=O)[C@@H](NC(=O)[C@H](CC(N)=O)NC(=O)[C@H](Cc1ccc(O)cc1)NC(=O)[C@H](CCC(N)=O)NC(=O)[C@@H](NC(=O)[C@H](CS)NC(=O)[C@H](Cc1ccccc1)NC(=O)[C@@H](NC(=O)[C@H](C)NC(=O)[C@H](CCC(=O)O)NC(=O)[C@H](CCCNC(=N)N)NC(=O)[C@H](CCCNC(=N)N)NC(=O)[C@H](CCC(=O)O)NC(=O)[C@@H](NC(=O)[C@H](CCCC)NC(=O)[C@H](CCCNC(=N)N)NC(=O)[C@H](CCC(N)=O)NC(=O)[C@H](Cc1ccc(O)cc1)NC(=O)[C@H](CCC(=O)O)NC(=O)[C@@H](NC(=O)[C@H](CCCNC(=N)N)NC(=O)[C@H](C)NC(=O)[C@H](CC(C)C)NC(=O)[C@H](Cc1ccccc1)NC(=O)CNC(=O)[C@H](CCCNC(=N)N)NC(=O)[C@H](CS)NC(=O)[C@H](CCCNC(=N)N)NC(=O)[C@H](C)N)C(C)C)C(C)C)[C@@H](C)CC)[C@@H](C)CC)[C@@H](C)CC)C(=O)N[C@@H](CC(N)=O)C(=O)N[C@H](C(=O)N[C@@H](CCCCN)C(=O)N[C@@H](Cc1c[nH]cn1)C(=O)N[C@@H](Cc1c[nH]c2ccccc12)C(=O)N1CCC[C@H]1C(=O)N[C@@H](Cc1c[nH]c2ccccc12)C(N)=O)C(C)C [HC095] (H-ARCRGFLARVEYQR[Nle]VERREAIFCIQYNIRSF[Nle]NVKHWPW-NH2; N-terminus and C-terminus assumed) | 10
3 | CC[C@H](C)[C@H](NC(=O)[C@H](C)NC(=O)[C@H](CCC(=O)O)NC(=O)[C@H](CCCNC(=N)N)NC(=O)[C@H](CCCNC(=N)N)NC(=O)[C@H](CCC(=O)O)NC(=O)[C@@H]1CCCCNC(=O)CCC(=O)NCCCC[C@@H]2NC(=O)[C@H](C)NC(=O)[C@H](CC(C)C)NC(=O)[C@H](Cc3ccccc3)NC(=O)CNC(=O)[C@H](CCCNC(=N)N)NC(=O)[C@@H](NC(=O)[C@H](CCCNC(=N)N)NC(=O)[C@H](C)N)CCCCNC(=O)CCC(=O)NCCCC[C@H](NC2=O)C(=O)N[C@@H](CCC(=O)O)C(=O)N[C@@H](Cc2ccc(O)cc2)C(=O)N[C@@H](CCC(N)=O)C(=O)N[C@@H](CCCNC(=N)N)C(=O)N[C@@H](CCSC)C(=O)N1)C(=O)N[C@@H](Cc1ccccc1)C(=O)N[C@@H](CS)C(=O)N[C@H](C(=O)N[C@@H](CCC(N)=O)C(=O)N[C@@H](Cc1ccc(O)cc1)C(=O)N[C@@H](CC(N)=O)C(=O)N[C@H](C(=O)N[C@@H](CCCNC(=N)N)C(=O)N[C@@H](CO)C(=O)N[C@@H](Cc1ccccc1)C(=O)N[C@@H](CCSC)C(=O)N[C@@H](CC(N)=O)C(=O)N[C@H](C(=O)N[C@@H](CCCCN)C(=O)N[C@@H](Cc1c[nH]cn1)C(=O)N[C@@H](Cc1c[nH]c2ccccc12)C(=O)N1CCC[C@H]1C(=O)N[C@@H](Cc1c[nH]c2ccccc12)C(N)=O)C(C)C)[C@@H](C)CC)[C@@H](C)CC [HC153] (H-ARKRGFLAKKEYQRMKERREAIFCIQYNIRSFMNVKHWPW-NH2; linker 3-10, 9-16 via Suc (inferred); N-terminus and C-terminus assumed) | 11
4 | CC[C@H](C)[C@H](NC(=O)[C@H](C)NC(=O)[C@H](CCC(=O)O)NC(=O)[C@H](CCCNC(=N)N)NC(=O)[C@H](CCCNC(=N)N)NC(=O)[C@H](CCC(=O)O)NC(=O)[C@@H]1CCCCNC(=O)CCC(=O)NCCCC[C@@H]2NC(=O)[C@H](C)NC(=O)[C@H](CC(C)C)NC(=O)[C@@H](NC(=O)CNC(=O)[C@H](CCCNC(=N)N)NC(=O)[C@H](CS)NC(=O)[C@H](CCCNC(=N)N)NC(=O)[C@H](C)N)CCCCNC(=O)CCC(=O)NCCCC[C@H](NC(=O)[C@H](Cc3ccc(O)cc3)NC(=O)[C@H](CCC(=O)O)NC(=O)[C@H](C(C)C)NC2=O)C(=O)N[C@@H](CCCNC(=N)N)C(=O)N[C@@H](CCSC)C(=O)N1)C(=O)N[C@@H](Cc1ccccc1)C(=O)N[C@@H](CS)C(=O)N[C@H](C(=O)N[C@@H](CCC(N)=O)C(=O)N[C@@H](Cc1ccc(O)cc1)C(=O)N[C@@H](CC(N)=O)C(=O)N[C@H](C(=O)N[C@@H](CCCNC(=N)N)C(=O)N[C@@H](CO)C(=O)N[C@@H](Cc1ccccc1)C(=O)N[C@@H](CCSC)C(=O)N[C@@H](CC(N)=O)C(=O)N[C@H](C(=O)N[C@@H](CCCCN)C(=O)N[C@@H](Cc1c[nH]cn1)C(=O)N[C@@H](Cc1c[nH]c2ccccc12)C(=O)N1CCC[C@H]1C(=O)N[C@@H](Cc1c[nH]c2ccccc12)C(N)=O)C(C)C)[C@@H](C)CC)[C@@H](C)CC [HC155] (H-ARCRGKLAKVEYKRMKERREAIFCIQYNIRSFMNVKHWPW-NH2; linker 6-13, 9-16 via Suc (inferred); N-terminus and C-terminus assumed) | 9.5

Results, then the compound that gave them:

Row | IC50 [µM] | SMILES
5 | 9 | CC[C@H](C)[C@H](NC(=O)[C@H](C)N)C(=O)N[C@@H](Cc1ccccc1)C(=O)N[C@@H](CS)C(=O)N[C@H](C(=O)N[C@@H](CCC(N)=O)C(=O)N[C@@H](Cc1ccc(O)cc1)C(=O)N[C@@H](CC(N)=O)C(=O)N[C@H](C(=O)N[C@@H](CCCNC(=N)N)C(=O)N[C@@H](CO)C(=O)N[C@@H](Cc1ccccc1)C(=O)N[C@@H](CCSC)C(=O)N[C@@H](CC(N)=O)C(=O)N[C@H](C(=O)N[C@@H](CCCCN)C(=O)N[C@@H](Cc1c[nH]cn1)C(=O)N[C@@H](Cc1c[nH]c2ccccc12)C(=O)N1CCC[C@H]1C(=O)N[C@@H](Cc1c[nH]c2ccccc12)C(=O)N[C@@H](CCSC)C(=O)N[C@@H](CCCCN)C(=O)N[C@@H](CC(C)C)C(=O)N[C@@H](Cc1ccccc1)C(=O)N[C@@H](Cc1ccccc1)C(=O)N[C@@H](CCCCN)C(=O)N[C@H](C(=O)N[C@@H](CCCCN)C(N)=O)[C@@H](C)CC)C(C)C)[C@@H](C)CC)[C@@H](C)CC [HC101] (H-AIFCIQYNIRSFMNVKHWPWMKLFFKIK-NH2; N-terminus and C-terminus assumed)
6 | 9.4 | CC[C@H](C)[C@H](NC(=O)[C@H](C)NC(=O)[C@H](CCC(=O)O)NC(=O)[C@H](CCCNC(=N)N)NC(=O)[C@H](CCCNC(=N)N)NC(=O)[C@H](CCC(=O)O)NC(=O)[C@@H]1CCCCNC(=O)CCC(=O)NCCCC[C@@H]2NC(=O)[C@H](C)NC(=O)[C@H](CC(C)C)NC(=O)[C@H](Cc3ccccc3)NC(=O)[C@@H](NC(=O)[C@H](CCCNC(=N)N)NC(=O)[C@H](CS)NC(=O)[C@H](CCCNC(=N)N)NC(=O)[C@H](C)N)CCCCNC(=O)CCC(=O)NCCCC[C@H](NC(=O)[C@H](CCC(=O)O)NC(=O)[C@H](C(C)C)NC2=O)C(=O)N[C@@H](CCC(N)=O)C(=O)N[C@@H](CCCNC(=N)N)C(=O)N[C@@H](CCSC)C(=O)N1)C(=O)N[C@@H](Cc1ccccc1)C(=O)N[C@@H](CS)C(=O)N[C@H](C(=O)N[C@@H](CCC(N)=O)C(=O)N[C@@H](Cc1ccc(O)cc1)C(=O)N[C@@H](CC(N)=O)C(=O)N[C@H](C(=O)N[C@@H](CCCNC(=N)N)C(=O)N[C@@H](CO)C(=O)N[C@@H](Cc1ccccc1)C(=O)N[C@@H](CCSC)C(=O)N[C@@H](CC(N)=O)C(=O)N[C@H](C(=O)N[C@@H](CCCCN)C(=O)N[C@@H](Cc1c[nH]cn1)C(=O)N[C@@H](Cc1c[nH]c2ccccc12)C(=O)N1CCC[C@H]1C(=O)N[C@@H](Cc1c[nH]c2ccccc12)C(N)=O)C(C)C)[C@@H](C)CC)[C@@H](C)CC [HC154] (H-ARCRKFLAKVEKQRMKERREAIFCIQYNIRSFMNVKHWPW-NH2; linker 5-12, 9-16 via Suc (inferred); N-terminus and C-terminus assumed)

From patent US20220340629A1, “Myosin Derived Peptides and Related Compounds with Anticoagulant Activities” (THE SCRIPPS RESEARCH INSTITUTE, priority 0001, published 2022)
